{
  "source": "paper PMC11645656",
  "about": "“MRGPRX4 mediates phospho-drug associated pruritus in a humanized mouse model” (Science translational medicine, 2024)",
  "assay_type_in_all_cases": "cell-based",
  "key": {"MRGPRX4 (S83)": {"molecular_target": "T1, MRGPRX4 (S83) (Homo sapiens, UniProt Q96LA9, L83S)", "T1 construct": "expressed in transfected cells", "T1 sequence (Q96LA9 whole entry L83S)": "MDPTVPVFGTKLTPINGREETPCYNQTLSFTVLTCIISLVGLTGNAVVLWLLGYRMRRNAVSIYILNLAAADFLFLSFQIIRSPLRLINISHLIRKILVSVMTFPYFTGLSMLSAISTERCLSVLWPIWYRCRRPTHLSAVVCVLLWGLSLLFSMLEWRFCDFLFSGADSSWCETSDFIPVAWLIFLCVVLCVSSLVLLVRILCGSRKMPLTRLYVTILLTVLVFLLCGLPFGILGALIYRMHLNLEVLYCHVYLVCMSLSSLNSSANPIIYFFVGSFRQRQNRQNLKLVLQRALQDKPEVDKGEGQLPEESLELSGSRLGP", "experiment": "EC50 determination, intracellular calcium mobilization in MRGPRX4 stably expressed HEK293 cells (FLIPR Calcium 5, Flexstation-3)", "conditions": "propofol series, individual replicate values", "procedure,_shortened": "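EC50 came from a four-parameter logistic fit to averaged triplicate responses, each response being maximum post-stimulation signal less baseline. Intracellular calcium was monitored with Calcium 5 dye in HBSS with 20 mM HEPES, pH 7.4, after 1 h dye loading at 37 °C, using stably transfected HEK293 cells and parental controls.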"}, "HTLA cells": {"tested_on": "HTLA cells", "experiment": "PRESTO-Tango β-arrestin recruitment assay, parental HTLA cells without MRGPRX4 (control, fig. S1)", "source_text": "Supplement NIHMS2038790-supplement-table.xlsx, sheet \"fig. S1\" | column: Concentration (M)"}, "MRGPRX4 WT (S83)": {"molecular_target": "MRGPRX4 WT (S83) (Homo sapiens, UniProt Q96LA9, L83S)", "sequence (Q96LA9 whole entry L83S, the tested form may be a part)": "as the sequence (Q96LA9 whole entry L83S) above", "experiment": "PRESTO-Tango β-arrestin recruitment assay, HTLA cells stably expressing WT (S83) MRGPRX4", "set-up": "expressed in transfected cells", "conditions": "HTLA::MRGPRX4", "description": "HTLA cells, a cell line derived from HEK293 and engineered to stably express a tTA-dependent luciferase reporter and a β-arrestin2-TEV fusion gene, were generously provided by Richard Axel's laboratory. HTLA cells were cultured in growth medium containing 2 μg/ml puromycin and 100 μg/ml hygromycin B in 5% CO2 at 37 °C. Stably MRGPRX4-expressing HTLA cells were generated by transfecting pcDNA3.1(+)-Zeo containing MRGPRX4-Tango construct (either with WT or S83L mutant sequence) into HTLA cells with Lipofectamine 3000 and selecting the successful transfected clones with Zeocin.\nHTLA cells stably expressing either WT or S83L MRGPRX4 were seeded in PDL-coated 96-well white clear bottom cell culture plates with DMEM containing 10% FBS, at a density of 35,000 cells per well and were allowed to attach to the bottom of the wells overnight. The next day, growth medium was replaced with 100 μl of serum-free medium containing the tested drugs at various concentrations, and the cells were then incubated at 37°C for 24 h. On the following day, media with drug solutions was removed and 50 μl per well of Bright-Glo™ Reagent from Bright-Glo™ Luciferase Assay System (Promega) was loaded. The plate was incubated at room temperature in the dark for 5 min, and the relative luminescence units were measured using the Flexstation-3 instrument with SoftMax®Pro 7.1 software (Molecular Devices). Dose response curves and EC50s were analyzed as described above.\nData are from at least two independent experiments, each performed in\ntriplicate, and are depicted as mean ± SEM.\narrestin2-TEV fusion gene and a tTA -dependent luciferase reporter."}},
  "note": "“And” between values parts separate entries of the source, which are not always exact repeats. Equal entries are not always repeated.",
  "data": [
    {"smiles": "CC(C)c1cccc(C(C)C)c1O", "note": "[Propofol]", "values": [
      {"measurement": "Fig. 1D dose-response, calcium response at Concentration (M)", "setting": "MRGPRX4 (S83); 9.76563e-7 M", "value": "0.414 and 3.255 and 2.599 and 1.616 and 1.795 and 1.237 and 1.276 and 3.496 and 2.341"},
      {"measurement": "Fig. 1D dose-response, calcium response at Concentration (M)", "setting": "MRGPRX4 (S83); 1.95313e-6 M", "value": "1.458 and 0.513 and 0.300 and 1.914 and 1.276 and 2.203 and 3.251 and -1.964 and 1.519"},
      {"measurement": "Fig. 1D dose-response, calcium response at Concentration (M)", "setting": "MRGPRX4 (S83); 3.90625e-6 M", "value": "5.819 and 7.751 and 4.466 and 7.090 and 4.830 and 4.639 and 13.006 and -1.259 and 2.816"},
      {"measurement": "Fig. 1D dose-response, calcium response at Concentration (M)", "setting": "MRGPRX4 (S83); 7.8125e-6 M", "value": "1.962 and 0.130 and 1.580 and 1.041 and 3.162 and 0.591 and -0.388 and 5.581 and 3.691"},
      {"measurement": "Fig. 1D dose-response, calcium response at Concentration (M)", "setting": "MRGPRX4 (S83); 1.5625e-5 M", "value": "1.132 and 9.188 and 9.688 and 3.963 and 8.123 and 8.863 and 0.133 and 12.778 and 11.454"},
      {"measurement": "Fig. 1D dose-response, calcium response at Concentration (M)", "setting": "MRGPRX4 (S83); 3.125e-5 M", "value": "25.991 and 46.958 and 31.996 and 27.619 and 18.338 and 28.954 and 31.875 and 17.124 and 5.004"},
      {"measurement": "Fig. 1D dose-response, calcium response at Concentration (M)", "setting": "MRGPRX4 (S83); 6.25e-5 M", "value": "7.246 and 18.605 and 32.559 and 31.367 and 1.645 and 36.351 and 11.712 and 17.508 and 39.720"},
      {"measurement": "Fig. 1D dose-response, calcium response at Concentration (M)", "setting": "MRGPRX4 (S83); 0.00025 M", "value": "30.626 and 14.912 and 5.366 and 49.034 and 15.438 and 25.512 and 22.768 and 21.559 and 24.302"},
      {"measurement": "Fig. 1D dose-response, calcium response at Concentration (M)", "setting": "MRGPRX4 (S83); 0.0005 M", "value": "10.617 and 40.711 and 21.943 and 10.261 and 44.385 and 12.114 and 18.721 and 45.754 and 25.261"},
      {"measurement": "Fig. 1D dose-response, calcium response at Concentration (M)", "setting": "MRGPRX4 (S83); 0.001 M", "value": "34.500 and 40.615 and 40.058 and 10.462 and 33.199 and 24.127 and 20.241 and 39.351 and 8.604"},
      {"measurement": "PRESTO-Tango response (fig. S1), single replicate", "setting": "HTLA cells; concentration 9.77e-7 M", "value": "0.002641 and 0.003228 and 0.001921 and 0.003818 and 0.005628 and 0.002399 and 0.002922 and 0.00482 and 0.001506"},
      {"measurement": "PRESTO-Tango response (fig. S1), single replicate", "setting": "HTLA cells; concentration 1.95e-6 M", "value": "0.01304 and 0.00742 and 0.001861 and 0.009318 and 0.007315 and 0.005392 and 0.006104 and 0.000476 and 0.005086"},
      {"measurement": "PRESTO-Tango response (fig. S1), single replicate", "setting": "HTLA cells; concentration 3.91e-6 M", "value": "0.0059 and 0.008908 and 0.007295 and 0.003528 and 0.003903 and 0.003563 and 0.006271 and 0.01085 and 0.002976"},
      {"measurement": "PRESTO-Tango response (fig. S1), single replicate", "setting": "HTLA cells; concentration 7.81e-6 M", "value": "0.01035 and 0.005294 and 0.00767 and 0.001374 and 0.003682 and 0.00304 and 0.005677 and 0.00324 and 0.000748"},
      {"measurement": "PRESTO-Tango response (fig. S1), single replicate", "setting": "HTLA cells; concentration 1.56e-5 M", "value": "0.005663 and 0.003492 and 0.001779 and 0.006047 and 0.000809 and 0.001829 and 0.006081 and 0.002266 and 0.003388"},
      {"measurement": "PRESTO-Tango response (fig. S1), single replicate", "setting": "HTLA cells; concentration 3.13e-5 M", "value": "0.005015 and 0.001994 and 0.006447 and 0.00774 and 0.01014 and 0.004442 and 0.006627 and 0.005281 and 0.005885"},
      {"measurement": "PRESTO-Tango response (fig. S1), single replicate", "setting": "HTLA cells; concentration 6.25e-5 M", "value": "0.00323 and 0.00222 and 0.005079 and 0.001882 and 0.000357 and 0.003112 and 0.002446 and 0.001662 and 0.004291"},
      {"measurement": "PRESTO-Tango response (fig. S1), single replicate", "setting": "HTLA cells; concentration 0.00025 M", "value": "0.00362 and 0.004413 and 0.002642 and 0.006045 and 0.000923 and 0.008313 and 0.004252 and 0.005811 and 0.003669"},
      {"measurement": "PRESTO-Tango response (fig. S1), single replicate", "setting": "HTLA cells; concentration 0.0005 M", "value": "0.004877 and 0.00565 and 0.005098 and 0.004157 and 0.003595 and 0.001306 and 0.008836 and 0.005548 and 0.00448"},
      {"measurement": "PRESTO-Tango response (fig. S1), single replicate", "setting": "HTLA cells; concentration 0.001 M", "value": "0.000524 and 0.002159 and 0.001733 and 0.007522 and 0.000243 and 0.003444 and 0.004679 and 0.004321 and 0.006568"},
      {"measurement": "PRESTO-Tango response (fig. S1), single replicate", "setting": "MRGPRX4 WT (S83); concentration 9.77e-7 M", "value": "0.1179 and 0.1434 and 0.1128 and 0.0576 and 0.1584 and 0.1581 and 0.09558 and 0.2113 and 0.06727"},
      {"measurement": "PRESTO-Tango response (fig. S1), single replicate", "setting": "MRGPRX4 WT (S83); concentration 1.95e-6 M", "value": "0.1108 and 0.0929 and 0.1168 and 0.004899 and 0.1204 and 0.1953 and 0.1172 and 0.1059 and 0.09744"},
      {"measurement": "PRESTO-Tango response (fig. S1), single replicate", "setting": "MRGPRX4 WT (S83); concentration 3.91e-6 M", "value": "0.09107 and 0.1491 and 0.1505 and 0.154 and 0.1534 and 0.08321 and 0.05164 and 0.03127 and 0.3077"},
      {"measurement": "PRESTO-Tango response (fig. S1), single replicate", "setting": "MRGPRX4 WT (S83); concentration 7.81e-6 M", "value": "0.1035 and 0.1156 and 0.1105 and 0.05878 and 0.1844 and 0.08643 and 0.09982 and 0.0447 and 0.1851"},
      {"measurement": "PRESTO-Tango response (fig. S1), single replicate", "setting": "MRGPRX4 WT (S83); concentration 1.56e-5 M", "value": "0.1135 and 0.116 and 0.1027 and 0.1824 and 0.02561 and 0.1241 and 0.06605 and 0.09721 and 0.1689"},
      {"measurement": "PRESTO-Tango response (fig. S1), single replicate", "setting": "MRGPRX4 WT (S83); concentration 3.13e-5 M", "value": "0.1268 and 0.1068 and 0.1143 and 0.2727 and 0.04775 and 0.02749 and 0.1181 and 0.1469 and 0.08291"},
      {"measurement": "PRESTO-Tango response (fig. S1), single replicate", "setting": "MRGPRX4 WT (S83); concentration 6.25e-5 M", "value": "0.1552 and 0.07997 and 0.0929 and 0.03397 and 0.1353 and 0.1588 and 0.2302 and 0.01074 and 0.08707"},
      {"measurement": "PRESTO-Tango response (fig. S1), single replicate", "setting": "MRGPRX4 WT (S83); concentration 0.00025 M", "value": "0.109 and 0.07615 and 0.1012 and 0.1462 and 0.1013 and 0.03885 and 0.188 and 0.002674 and 0.09569"},
      {"measurement": "PRESTO-Tango response (fig. S1), single replicate", "setting": "MRGPRX4 WT (S83); concentration 0.0005 M", "value": "0.06978 and 0.08316 and 0.1048 and 0.1033 and 0.11 and 0.04438 and 0.05461 and 0.1469 and 0.05616"},
      {"measurement": "PRESTO-Tango response (fig. S1), single replicate", "setting": "MRGPRX4 WT (S83); concentration 0.001 M", "value": "0.07852 and 0.088 and 0.0856 and 0.07264 and 0.06166 and 0.1178 and 0.08358 and 0.132 and 0.03659"}
    ]}
  ]
}
